Test results: patent US20250313572A1, “MACROCYCLIC MCL-1 INHIBITORS AND METHODS OF USE” (AbbVie Inc., priority 2017, published 2025)
Like-named read-outs stand apart in the source and are kept apart here.

Experiments:
GST-MCL-1 = GST-MCL-1 (Homo sapiens, UniProt Q07820); experiment: TR-FRET MCL-1 binding assay (competition with probe F-Bak)
Outline: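 Displacement of F-Bak from GST-MCL-1 is detected by time-resolved FRET with a Tb-labelled anti-GST antibody, with excitation 340/35 nm and emission 520/525 and 495/510 nm, after 2 hours at room temperature. Compounds were titrated in 11 three-fold steps starting at 25 μM final, in buffer alone or in 10% HS.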

[1] = tested on: NCI-H929 human multiple myeloma tumor cell line; experiment: NCI-H929 cell viability assay (CellTiter-Glo, 24 hours); format: cell-based
[2] = tested on: AMO-1 human multiple myeloma tumor cell line; experiment: AMO-1 cell viability assay (CellTiter-Glo, 24 hours); format: cell-based
[3] = MCL-1 Binding Ki (nM, 10% HS), in the presence of 10% HS (human serum)
[4] = without HS, read-out: MCL-1 Binding Ki
[5] = Homo sapiens, NCI-H929, 24 h, read-out: H929 Viability IC50 (μM, 10% FBS), 10% FBS, 24 hours of compound treatment
[6] = Homo sapiens, AMO1, 24 h, read-out: AMO-1 Viability IC50 (μM, 10% FBS), 10% FBS, 24 hours of compound treatment
[7] = read-out: H929 Viability IC50 (μM, 10% FBS), 10% FBS, 24 hours of compound treatment
[8] = read-out: AMO-1 Viability IC50 (μM, 10% FBS), 10% FBS, 24 hours of compound treatment

GST-MCL-1, sequence (Q07820 whole entry): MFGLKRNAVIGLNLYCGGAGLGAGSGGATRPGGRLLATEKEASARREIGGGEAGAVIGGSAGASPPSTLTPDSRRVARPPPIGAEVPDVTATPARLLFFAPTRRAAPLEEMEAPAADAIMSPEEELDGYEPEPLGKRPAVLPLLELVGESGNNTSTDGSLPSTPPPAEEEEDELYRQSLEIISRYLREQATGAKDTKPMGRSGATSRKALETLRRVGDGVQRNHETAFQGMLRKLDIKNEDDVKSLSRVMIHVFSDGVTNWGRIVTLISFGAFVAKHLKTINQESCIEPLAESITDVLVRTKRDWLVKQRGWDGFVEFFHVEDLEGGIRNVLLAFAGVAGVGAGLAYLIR

Q: Which results are given for `COCCOCCOCCOCC1(F)CC=C(c2nccc(COc3ccc4cc3C[C@H](C(=O)O)Oc3ncnc5sc(-c6ccc(F)cc6)c(c35)-c3c(C)c(Cl)c(c(Cl)c3C)O[C@H](CN3CCN(C)CC3)CO4)n2)CC1` (single isomer, unassigned) [Example 101, (7R,16R)-19,23-dichloro-1-(4-fluorophenyl)-10-({2-[(4S*)-4-fluoro-4-(2,5,8,11-tetraoxadodecan-1-yl)cyclohex-1-en-1-yl]pyrimidin-4-yl}methoxy)-20,22-dimethyl-16-[(4-methylpiperazin-1-yl)methyl]-7,8,15,16-tetrahydro-18,21-etheno-13,9-(metheno)-6,14,17-trioxa-2-thia-3,5-diazacyclononadeca[1,2,3-cd]indene-7-carboxylic Acid]?
A: Ki (GST-MCL-1; [3]): 0.235 nM; Ki (GST-MCL-1; [4]): 0.02 nM; IC50 [1, 5]: 0.000298 µM; IC50 [2, 6]: 0.000195 µM

Q: `Cc1c(Cl)c2c(Cl)c(C)c1-c1c(-c3ccc(F)cc3)sc3ncnc(c13)O[C@@H](C(=O)O)Cc1cc(ccc1OCc1ccnc(C3=CCC(CC(=O)O)CC3)n1)OC[C@@H](CN1CCN(C)CC1)O2` (single isomer, unassigned) [Example 37, (7R,16R)-10-({2-[(4R*)-4-(carboxymethyl)cyclohex-1-en-1-yl]pyrimidin-4-yl}methoxy)-19,23-dichloro-1-(4-fluorophenyl)-20,22-dimethyl-16-[(4-methylpiperazin-1-yl)methyl]-7,8,15,16-tetrahydro-18,21-etheno-13,9-(metheno)-6,14,17-trioxa-2-thia-3,5-diazacyclononadeca[1,2,3-cd]indene-7-carboxylic Acid] was tested. Which Ki (GST-MCL-1; [3]) did it give?
A: 0.124 nM

Q: And the Ki (GST-MCL-1; [4])?
A: 0.009 nM

Q: And the IC50 [1, 7]?
A: 0.0167 µM

Q: And the IC50 [2, 8]?
A: 0.0096 µM

Q: Which Ki (GST-MCL-1; [3]) does the source give for `COCCOCCOCCOCCOCCOCC1(c2nccc(COc3ccc4cc3C[C@H](C(=O)O)Oc3ncnc5sc(-c6ccc(F)cc6)c(c35)-c3c(C)c(Cl)c(c(Cl)c3C)O[C@H](CN3CCN(C)CC3)CO4)n2)CCCCC1` [Example 88, (7R,16R)-19,23-dichloro-1-(4-fluorophenyl)-10-({2-[1-(2,5,8,11,14,17-hexaoxaoctadecan-1-yl)cyclohexyl]pyrimidin-4-yl}methoxy)-20,22-dimethyl-16-[(4-methylpiperazin-1-yl)methyl]-7,8,15,16-tetrahydro-18,21-etheno-13,9-(metheno)-6,14,17-trioxa-2-thia-3,5-diazacyclononadeca[1,2,3-cd]indene-7-carboxylic Acid] here?
A: 0.143 nM

Q: And the Ki (GST-MCL-1; [4])?
A: 0.033 nM

Q: What about the IC50 [1, 5] of the same molecule?
A: 0.00206 µM

Q: And the IC50 [2, 6]?
A: 0.00117 µM

Q: With `Cc1c(Cl)c2c(Cl)c(C)c1-c1c(-c3ccc(F)cc3)sc3ncnc(c13)O[C@@H](C(=O)O)Cc1cc(ccc1OCc1ccnc(N3CC4(COC4)C3)n1)OC[C@@H](CN1CCN(C)CC1)O2` [Example 42, (7R,16R)-19,23-dichloro-1-(4-fluorophenyl)-20,22-dimethyl-16-[(4-methylpiperazin-1-yl)methyl]-10-{[2-(2-oxa-6-azaspiro[3.3]heptan-6-yl)pyrimidin-4-yl]methoxy}-7,8,15,16-tetrahydro-18,21-etheno-9,13-(metheno)-6,14,17-trioxa-2-thia-3,5-diazacyclononadeca[1,2,3-cd]indene-7-carboxylic Acid] as the molecule, how does the Ki (GST-MCL-1; [3]) read?
A: 0.747 nM

Q: What about the Ki (GST-MCL-1; [4]) of the same molecule?
A: 0.085 nM

Q: And the IC50 [1, 5]?
A: 0.00314 µM

Q: What about the IC50 [2, 6] of the same molecule?
A: 0.0011 µM

Q: For `COCCOCCOCC1CN(c2nccc(COc3ccc4cc3C[C@@H](C(=O)O)Oc3ncnc5sc(-c6ccc(F)cc6)c(c35)-c3c(C)c(Cl)c(c(Cl)c3C)O[C@H](CN3CCN(C)CC3)CO4)n2)C1` [Example 140, (7S,16R)-19,23-dichloro-1-(4-fluorophenyl)-10-{[2-(3-{[2-(2-methoxyethoxy)ethoxy]methyl}azetidin-1-yl)pyrimidin-4-yl]methoxy}-20,22-dimethyl-16-[(4-methylpiperazin-1-yl)methyl]-7,8,15,16-tetrahydro-18,21-etheno-9,13-(metheno)-6,14,17-trioxa-2-thia-3,5-diazacyclononadeca[1,2,3-cd]indene-7-carboxylic Acid], which Ki (GST-MCL-1; [3]) is on record?
A: 166 nM

Q: What about the Ki (GST-MCL-1; [4]) of the same molecule?
A: 34.9 nM

Q: And the IC50 [1, 5]?
A: 0.244 µM

Q: And the IC50 [2, 6]?
A: 0.242 µM

Q: What does the source list for `Cc1c(Cl)c2c(Cl)c(C)c1-c1c(-c3ccc(F)cc3)sc3ncnc(c13)O[C@@H](C(=O)O)Cc1cc(ccc1OCc1ccnc(N3CCC(C)(CC(=O)O)CC3)n1)OC[C@@H](CN1CCN(C)CC1)O2` [Example 41, (7R,16R)-10-({2-[4-(carboxymethyl)-4-methylpiperidin-1-yl]pyrimidin-4-yl}methoxy)-19,23-dichloro-1-(4-fluorophenyl)-20,22-dimethyl-16-[(4-methylpiperazin-1-yl)methyl]-7,8,15,16-tetrahydro-18,21-etheno-13,9-(metheno)-6,14,17-trioxa-2-thia-3,5-diazacyclononadeca[1,2,3-cd]indene-7-carboxylic Acid]?
A: Ki (GST-MCL-1; [3]): 1.05 nM; Ki (GST-MCL-1; [4]): 0.078 nM; IC50 [1, 5]: 0.019 µM; IC50 [2, 6]: 0.0159 µM

Q: Which Ki (GST-MCL-1; [3]) does the source give for `COCCOCCOCCOC[C@@H]1CN(c2nccc(COc3ccc4cc3C[C@H](C(=O)O)Oc3ncnc5sc(-c6ccc(F)cc6)c(c35)-c3c(C)c(Cl)c(c(Cl)c3C)O[C@H](CN3CCN(C)CC3)CO4)n2)CCO1` [Example 68, (7R,16R)-19,23-dichloro-1-(4-fluorophenyl)-20,22-dimethyl-16-[(4-methylpiperazin-1-yl)methyl]-10-({2-[(2S)-2-(2,5,8,11-tetraoxadodecan-1-yl)morpholin-4-yl]pyrimidin-4-yl}methoxy)-7,8,15,16-tetrahydro-18,21-etheno-13,9-(metheno)-6,14,17-trioxa-2-thia-3,5-diazacyclononadeca[1,2,3-cd]indene-7-carboxylic Acid] here?
A: 0.209 nM

Q: And the Ki (GST-MCL-1; [4])?
A: 0.031 nM

Q: And the IC50 [1, 5]?
A: 0.000938 µM

Q: What about the IC50 [2, 6] of the same molecule?
A: 0.000426 µM

Q: With `COCCOCCOCCO[C@H]1CC[C@H](c2nccc(COc3ccc4cc3C[C@H](C(=O)O)Oc3ncnc5sc(C6CCC6)c(c35)-c3c(C)c(Cl)c(c(Cl)c3C)O[C@H](CN3CCN(C)CC3)CO4)n2)CC1` [Example 131, (7R,16R)-19,23-dichloro-1-cyclobutyl-10-({2-[(1r,4r)-4-{2-[2-(2-methoxyethoxy)ethoxy]ethoxy}cyclohexyl]pyrimidin-4-yl}methoxy)-20,22-dimethyl-16-[(4-methylpiperazin-1-yl)methyl]-7,8,15,16-tetrahydro-18,21-etheno-13,9-(metheno)-6,14,17-trioxa-2-thia-3,5-diazacyclononadeca[1,2,3-cd]indene-7-carboxylic Acid] as the molecule, how does the Ki (GST-MCL-1; [3]) read?
A: 1.14 nM

Q: What about the Ki (GST-MCL-1; [4]) of the same molecule?
A: 0.024 nM

Q: What about the IC50 [1, 5] of the same molecule?
A: 0.000585 µM

Q: And the IC50 [2, 6]?
A: 0.000367 µM

Q: What does the source list for `Cc1c(Cl)c2c(Cl)c(C)c1-c1c(-c3ccc(F)cc3)sc3ncnc(c13)O[C@@H](C(=O)O)Cc1cc(ccc1OCc1ccnc(-c3ccc(CN4CCS(=O)(=O)CC4)cc3)n1)OC[C@@H](CN1CCN(C)CC1)O2` [Example 126, (7R,16R)-19,23-dichloro-10-[(2-{4-[(1,1-dioxo-1˜^6-thiomorpholin-4-yl)methyl]phenyl}pyrimidin-4-yl)methoxy]-1-(4-fluorophenyl)-20,22-dimethyl-16-[(4-methylpiperazin-1-yl)methyl]-7,8,15,16-tetrahydro-18,21-etheno-13,9-(metheno)-6,14,17-trioxa-2-thia-3,5-diazacyclononadeca[1,2,3-cd]indene-7-carboxylic Acid]?
A: Ki (GST-MCL-1; [3]): 0.39 nM; Ki (GST-MCL-1; [4]): 0.043 nM; IC50 [1, 5]: 0.00169 µM; IC50 [2, 6]: 0.000544 µM

Q: Which Ki (GST-MCL-1; [3]) does the source give for `Cc1c(Cl)c2c(Cl)c(C)c1-c1c(-c3ccc(F)cc3)sc3ncnc(c13)O[C@@H](C(=O)O)Cc1cc(ccc1OCc1ccnc(-c3ccc(OCCN4CC5(COC5)C4)cc3)n1)OC[C@@H](CN1CCN(C)CC1)O2` [Example 165, (7R,16R)-19,23-dichloro-1-(4-fluorophenyl)-20,22-dimethyl-16-[(4-methylpiperazin-1-yl)methyl]-10-[(2-{4-[2-(2-oxa-6-azaspiro[3.3]heptan-6-yl)ethoxy]phenyl}pyrimidin-4-yl)methoxy]-7,8,15,16-tetrahydro-18,21-etheno-13,9-(metheno)-6,14,17-trioxa-2-thia-3,5-diazacyclononadeca[1,2,3-cd]indene-7-carboxylic Acid] here?
A: 0.267 nM

Q: What about the Ki (GST-MCL-1; [4]) of the same molecule?
A: 0.031 nM

Q: What about the IC50 [1, 5] of the same molecule?
A: 0.00856 µM

Q: What about the IC50 [2, 6] of the same molecule?
A: 0.00353 µM

Q: For `COCCOCCOCCOCC1(C)CC=C(c2nccc(COc3ccc4cc3C[C@H](C(=O)O)Oc3ncnc5sc(-c6ccc(F)cc6)c(c35)-c3c(C)c(Cl)c(c(Cl)c3C)O[C@H](CN3CCN(C)CC3)CO4)n2)CC1` (single isomer, unassigned) [Example 119, (7R,16R)-19,23-dichloro-1-(4-fluorophenyl)-20,22-dimethyl-16-[(4-methylpiperazin-1-yl)methyl]-10-({2-[(4S*)-4-methyl-4-(2,5,8,11-tetraoxadodecan-1-yl)cyclohex-1-en-1-yl]pyrimidin-4-yl}methoxy)-7,8,15,16-tetrahydro-18,21-etheno-13,9-(metheno)-6,14,17-trioxa-2-thia-3,5-diazacyclononadeca[1,2,3-cd]indene-7-carboxylic Acid], which Ki (GST-MCL-1; [3]) is on record?
A: 0.16 nM

Q: And the Ki (GST-MCL-1; [4])?
A: 0.004 nM

Q: What about the IC50 [1, 7] of the same molecule?
A: 0.000333 µM

Q: And the IC50 [2, 8]?
A: 0.000181 µM
